Source: publication PMC10779433, “Bidirectional Allosteric Coupling between PIP2 Binding and the Pore of the Oncochannel TRPV6” (International Journal of Molecular Sciences, 2024)
Residues, ends and D or L forms follow the SMILES beside them. *: point of attachment. Palmitoyl = CCCCCCCCCCCCCCCC(=O)*

Molecular target: T1, TRPV6 WT (Homo sapiens, UniProt Q9H1D0)
T1 construct: expressed in transfected cells; host or cells: HEK293 cells, transient transfection
T1 sequence (Q9H1D0 41-765 limits assumed): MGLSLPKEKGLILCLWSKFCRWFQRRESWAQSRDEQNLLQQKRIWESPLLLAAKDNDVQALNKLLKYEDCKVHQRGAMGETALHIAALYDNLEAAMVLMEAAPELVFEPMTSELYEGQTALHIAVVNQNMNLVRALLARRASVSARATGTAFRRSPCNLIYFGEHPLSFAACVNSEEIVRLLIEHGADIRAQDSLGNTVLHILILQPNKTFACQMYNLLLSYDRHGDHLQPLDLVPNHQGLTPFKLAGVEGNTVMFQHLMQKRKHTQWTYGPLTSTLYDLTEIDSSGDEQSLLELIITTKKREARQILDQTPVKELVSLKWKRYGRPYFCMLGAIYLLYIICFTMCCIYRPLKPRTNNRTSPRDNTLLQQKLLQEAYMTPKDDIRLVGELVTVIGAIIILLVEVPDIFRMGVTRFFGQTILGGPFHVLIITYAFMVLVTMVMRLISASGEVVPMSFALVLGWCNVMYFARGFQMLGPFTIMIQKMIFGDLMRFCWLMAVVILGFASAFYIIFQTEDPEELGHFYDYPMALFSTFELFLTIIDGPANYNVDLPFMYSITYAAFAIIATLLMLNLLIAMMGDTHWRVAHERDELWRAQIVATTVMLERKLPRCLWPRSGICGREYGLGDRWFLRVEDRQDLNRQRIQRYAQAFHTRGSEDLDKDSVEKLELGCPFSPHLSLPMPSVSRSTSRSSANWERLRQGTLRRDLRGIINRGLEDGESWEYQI
Test: NFAT localization, TRPV6 WT
Type: cell-based
Details: HEK293 cells
Description: N-terminally TagRFP-labeled human TRPV6 (725 aa) was kindly provided by R. Bhardwaj and M. Hediger (University of Bern, Bern, Switzerland). This variant is translated from the first ATG codon and thus deviates from the non-ATG-initiated protein which is expressed in vivo (accession number NM_018646.6) by lacking 40 amino acids of the very N-terminus. For N-terminal labeling with EYFP, TRPV6 was cloned into pEYFP-C1 (Clontech) via EcoRI and SacII restriction sites. Mutations (F468A, R470A, F472A, K484A/Q, G488R, R492A/Q, I575A, G579A, D580A/K, H582A, W583A/F, H587A, R589A, W593A, R632A/Q, R470A, W583F) were introduced using the QuickChange XL site-directed mutagenesis kit (Stratagene, San Diego, CA, USA) and Pfu DNA Polymerase (Promega, Madison, WI, USA). pTagRFP-hTRPV6 I575A was kindly provided by the lab of M. Hediger (University of Bern, Bern, Switzerland). Forward and reverse primers for site-directed mutagenesis were synthesized by Eurofins genomics GmbH (Wien, Vienna, Austria). Intactness of the constructs in terms of sequence was confirmed by sequencing (Microsynth Austria GmbH, Wien, Vienna, Austria; Eurofins genomics GmbH, Wien, Vienna, Austria). In the present experiments, Tag-RFP-labeled constructs were implemented for NFAT screens, patch clamp measurements, and Fura-2-based Ca^2+ imaging, while for R.Geco1.2 measurements, TRPV6 WT and mutants were used which carried an EYFP label at the N-terminus (pEYFP-C1 vector) to avoid spectral overlap. R.Geco1.2 was purchased from Addgene (No. 45494), and mCherry-CRY2-5ptase OCRL was established in the lab of P. De Camilli and was derived from Addgene (No. 66836), as was CIBN-CAAX (No. 79574). Plasmids encoding for mCerulean3-CRY2-5′ ptase OCRL, YFP-CIBN-CAAX, and the mCherry-tagged PH domain were provided by K. Groschner (Medical University of Graz, Graz, Austria). […] CFP-NFAT (NFATc1, equivalent to NFAT2) was kindly provided by R. Kehlenbach (Scripps Research Institute, La Jolla, CA, USA).
After incubation, cover slips were carefully rinsed with phenol red-free DMEM supplemented with the compound and dosage corresponding to the previous incubation, which was then also present during imaging. In any case, an untreated control was included as well, using phenol red-free DMEM as imaging solution. Subcellular NFAT localization of TRPV6 expressing cells was again monitored on an Axiovert 135 inverted microscope (Zeiss, Oberkochen, Germany), as described in more detail before. Excitation of CFP relied on the 425 nm LED in combination with a CHROMA 69,008× ET ECFP/EYFP/mCherry 25mm Dia Mounted filter. Images were analyzed using Matlab2018a, differentiating between three cell populations based on the ratio of CFP emission intensity originating from the nucleus and the cytosol, similar to Schober et al. (2019).

[1] = 5 μM cis-22a, three or four hours

SMILES	NFAT distribution pattern (0.1 μM cis-22a, 2 h, 37 °C, vs DMSO about 90% nuclear, about 10% homogeneous)	nuclear NFAT localization (% of cells) (5 μM cis-22a, 2 h, vs DMSO control 90% nuclear) [%]	NFAT cytosolic localization [1]	NFAT nuclear localization [1]	NFAT homogeneous vs cytosolic localization (10 μM cis-22a, 2 h)	NFAT cytosolic localization, dose dependence (0.1, 1, 5, 10 μM cis-22a, 2 h)	NFAT nuclear localization, dose dependence (1, 5, or 10 μM cis-22a, 2 h, 37 °C)	NFAT localization patterns (10 μM pal-PIP2 peptide, 15–20 min or 2 h)
Cc1cccc(C2CCC(N3CCN(c4cccnc4)CC3)CC2)c1.O=C(O)C(F)(F)F (stereo not drawn) [cis-22a]	essentially preserved	22	roughly 40%	only a small proportion of cells maintained nuclear localization	the likelihood for homogeneous and cytosolic localization equalized	only observed at the two highest concentrations tested	continuously decreased the proportion of cells showing nuclear NFAT localization but favored a homogeneous distribution	
CCCCCCCCCCCCCCCC(=O)N[C@@H](Cc1c[nH]cn1)C(=O)N[C@@H](CCCNC(=N)N)C(=O)N[C@@H](CCC(N)=O)C(=O)N[C@@H](CCCCN)C(=O)N[C@@H](Cc1c[nH]cn1)C(=O)N[C@@H](Cc1ccccc1)C(=O)N[C@@H](CCC(=O)O)C(=O)N[C@@H](CCCCN)C(=O)N[C@@H](CCCNC(=N)N)C(=O)N[C@@H](CCCNC(=N)N)C(N)=O [pal-PIP2 peptide] (Palmitoyl-HRQKHFEKRR-NH2)								unable to change localization patterns
